Experimental findings from publication PMC7531004, “Discovery of gramicidin A analogues with altered activities by multidimensional screening of a one-bead-one-compound library” (Nature Communications, 2020) are described below.

For orientation: IC50 means the midpoint of a concentration-inhibition curve.

“And” between values parts separate entries of the source, which are not always exact repeats. Identical values can stand only once. Like-named read-outs stand apart in the source and are kept apart here. Where a SMILES comes first, the peptide text is derived from it. [ ]: non-standard residue; d: D form. The star is where a group is joined. NHCH2CH2OH = OCCN*; For = O=C*

The test system of data set [1] is Listeria monocytogenes 10403S. As to conditions: for Antibacterial activity MIC: 10403S; for antibacterial activity/MIC: L. monocytogenes. An outline of the steps:
(§1)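 Growth inhibition was scored after 18–24 h at 37 °C in cation-adjusted Mueller Hinton broth, with laked horse blood (5%) included for streptococcal strains. Inocula were standardized by OD 625 and diluted to about 5 × 10^4 CFU/well.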

The test system of data set [2] is Streptococcus pneumoniae NBRC 102642. The note with it: for Antibacterial activity MIC: NBRC 102642; for antibacterial activity/MIC: S. pneumoniae. The essentials:
as §1

The subject of data set [3] is Streptococcus agalactiae JCM5671. The note with it: for Antibacterial activity MIC: JCM5671; for antibacterial activity/MIC: S. agalactiae. The essentials:
as §1

For data set [4], the system named is Streptococcus pyogenes SSI-9. The note with it: for antibacterial activity/MIC: S. pyogenes; for Antibacterial activity MIC: SSI-9. The essentials:
as §1

Data set [5] has as its system Enterococcus faecalis JCM5803. The note with it: for antibacterial activity/MIC: E. faecalis; for Antibacterial activity MIC: JCM5803. An outline of the steps:
as §1

A short description of data set [6]: Membrane disruption assay of purified peptides (carboxyfluorescein leakage). Format: biochemical. More on the design: key: % lysis; Triton X-100 = 100%, DMSO = 0%. The note with it: three replicate lines.
[7] abbreviates: IC50, mammalian cytotoxicity assay.

With `CC(C)C[C@@H](NC(=O)[C@H](C)NC(=O)[C@H](NC(=O)[C@H](C)NC(=O)CNC(=O)[C@@H](NC=O)C(C)C)[C@H](C)O)C(=O)N[C@H](C(=O)N[C@H](CC(C)C)C(=O)N[C@@H](Cc1c[nH]c2ccccc12)C(=O)N[C@@H](C(=O)N[C@@H](Cc1c[nH]c2ccccc12)C(=O)N[C@H](CC(C)C)C(=O)N[C@@H](Cc1c[nH]c2ccccc12)C(=O)N[C@@H](C(=O)N[C@@H](Cc1c[nH]c2ccccc12)C(=O)NCCO)C(C)C)[C@H](C)O)C(C)C` [B21] (For-VGA[dT]A[dL]V[dL]W[dT]W[dL]W[dV]W-NHCH2CH2OH), the “Antibacterial activity MIC” value is > 34 µM in data set [1]; 0.53 µM in data set [2]; 34 µM in data set [3]; 17 µM in data set [4]; 4.3 µM in data set [5]. The “antibacterial activity/MIC” value in data set [1] is > 64 µg/mL; in data set [2], 1 µg/mL; in data set [3] it was 64 µg/mL; in data set [4], 32 µg/mL; in data set [5], 8 µg/mL. In addition, the “Supplementary Figure 1 dose-response value” in data set [6] (concentration 0.000512 nM) is 14.8974 and 5.3396 and 11.8083; in data set [6] (concentration 0.00256 nM) it was 18.072 and -2.382 and 0.726; in data set [6] (concentration 0.0128 nM), -1.184 and 8.357 and 7.1241; in data set [6] (concentration 0.064 nM), -0.803 and 4.138 and 1.858; in data set [6] (concentration 0.32 nM), 1.612 and 3.04 and 7.439; in data set [6] (concentration 1.6 nM) it was 5.221 and -3.492 and 12.0075. Also, the “Supplementary Figure 1 dose-response value” in data set [6] (concentration 8 nM) was 15.0705 and 19.6578 and 20.2333; in data set [6] (concentration 40 nM), 21.4059 and 19.6002 and 32.4332; in data set [6] (concentration 200 nM) it was 39.5964 and 37.7798 and 25.5852; in data set [6] (concentration 1000 nM) it was 40.751 and 51.3594 and 47.003; in data set [6] (concentration 5000 nM), 73.5609 and 68.2985 and 59.7258. Under setting [7], the IC50 is > 1000 nM.

Turning to `CC(C)C[C@@H](NC(=O)[C@H](C)NC(=O)[C@H](NC(=O)[C@H](C)NC(=O)CNC(=O)[C@@H](NC=O)C(C)C)C(C)C)C(=O)N[C@H](C(=O)N[C@@H](C(=O)N[C@@H](Cc1c[nH]c2ccccc12)C(=O)N[C@@H](C(=O)N[C@@H](Cc1c[nH]c2ccccc12)C(=O)N[C@H](CC(C)C)C(=O)N[C@@H](Cc1c[nH]c2ccccc12)C(=O)N[C@H](CC(C)C)C(=O)N[C@@H](Cc1c[nH]c2ccccc12)C(=O)NCCO)C(C)C)C(C)C)C(C)C` [B02] (For-VGA[dV]A[dL]V[dV]W[dV]W[dL]W[dL]W-NHCH2CH2OH), the “Antibacterial activity MIC” value in data set [1] was 2.1 µM; in data set [2], 0.0083 µM; in data set [3] it was 8.6 µM; in data set [4], 0.067 µM; in data set [5], 0.13 µM. In addition, the “antibacterial activity/MIC” value in data set [1] worked out at 4 µg/mL; in data set [2] it was 0.016 µg/mL; in data set [3], 16 µg/mL; in data set [4], 0.13 µg/mL; in data set [5] it was 0.25 µg/mL. Also, the “Supplementary Figure 1 dose-response value” in data set [6] (concentration 0.000512 nM) is 9.02 and 15.736 and 15.2512; in data set [6] (concentration 0.00256 nM), 10.3575 and 0.7916 and 7.576; in data set [6] (concentration 0.0128 nM), 7.7612 and 17.627 and 12.0633; in data set [6] (concentration 0.064 nM) it was 6.7018 and 5.872 and 12.3383; in data set [6] (concentration 0.32 nM) it was 3.446 and 4.916 and 7.303; in data set [6] (concentration 1.6 nM), 10.6531 and 8.102 and 5.996. Further, the “Supplementary Figure 1 dose-response value” was 14.5931 and 12.2206 and 13.5025 in data set [6] (concentration 8 nM); 11.4708 and 19.6235 and 9.068 in data set [6] (concentration 40 nM); 17.1246 and 21.9524 and 27.5088 in data set [6] (concentration 200 nM); 23.4943 and 22.4951 and 16.9683 in data set [6] (concentration 1000 nM); 38.5863 and 36.6933 and 43.5874 in data set [6] (concentration 5000 nM). Besides, the concentration for half-maximal inhibition (IC50) runs as follows: (Cytotoxicity IC50) 17 nM; under setting [7], 18.7 nM; (cytotoxicity against P388 cells/IC50) 16.8 ± 2.82 nM.
